Experimental data: patent publication US20220265549A1, “PHARMACEUTICAL COMPOSITION COMPRISING ENSIFENTRINE” (VERONA PHARMA PLC, priority 2019, published 2022)

Assays:
patients with COPD [1] = experiment: Phase II clinical study, repeat dose crossover part (FEV1); format: in vivo, human; settings: for Improvement from baseline in peak FEV1 (over 4 hours) on Day 7 compared with placebo: DPI; for Improvement in morning trough FEV1 on Day 7 compared with placebo: twice daily over 7 days, dose not identified
Protocol: (§1) A 2-part, 37 patient, Phase II single and repeat dose clinical study with ensifentrine in patients with COPD was completed using DPI formulations 12, 13 and 14 (Table 6).
The second part of the study was a complete block crossover study using the same patients that were dosed in the first part of the study. Ensifentrine doses of 0.15 mg to 3 mg dosed twice daily over 7 days also provided dose-dependent, highly statistically significant and clinically meaningful improvements from baseline in peak FEV1 (over 4 hours) on Day 7 of 102, 175, 180, and 260 mL, respectively, compared with placebo (p≤0.0001 for all dose groups). The improvement in FEV1 was sustained over the 12 hour dosing interval as shown by clinically meaningful and statistically significant improvements in average FEV1 over 12 hours of up to 147 mL (p<0.05 for all dose groups) and in morning trough FEV1 on Day 7 of 98, 87, and 97 mL, respectively, compared with placebo (p≤0.001 for each dose).

[2] = Particle size distribution of materials (laser diffraction); format: physicochemical; settings: volume particle size distribution
Excerpt: Particle sizes are described herein by reference to the Dv50 value, which is the median particle size for a volume distribution. Thus, half the volume of the particles have diameters of less than the Dv50 value and half the volume of the particles have diameters of greater than the Dv50 value. This is a well-known manner in which to describe particle size distributions. The parameters of Dv10 and Dv90 may also be used to characterise a particle size distribution of a sample. 10% of the volume of particles have a diameter of less than the Dv10 value. 90% of the volume of the particles have a diameter of less than the Dv90 value.
The technique used to measure the Dv50 (and Dv10 and Dv90) values as stated herein is typically laser diffraction. For instance, the coarse lactose particles typically have a particle size distribution with a Dv50 value of from 40 μm to 80 μm as measured by laser diffraction and the fine lactose particles have a particle size distribution with a Dv50 value of from 5 μm to 10 μm as measured by laser diffraction.
The particle size distribution of low aqueous solubility materials, for instance the ensifentrine particles, may be as measured by laser diffraction using a wet powder dispersion system. For instance, the particle size distribution can be measured by laser diffraction using a Malvern Spraytec in conjunction with a wet dispersion cell. Typically, the instrument parameters for the Malvern Spraytec are as follows: • particle—standard opaque particle; • refractive index Particle—1.50; • refractive index (imaginary)—0.50; • density of particle—1.00; • refractive index of dispersant—1.33; • controller unit—1000 RPM; • measurement type—timed; • initial sampling time—30 s; • obscuration—20%-30%; • dispersant—1% Polysorbate 20 in deionised water.
The particle size distribution of materials soluble in water, for instance lactose particles, may be as measured by laser diffraction using a dry powder dispersion system. For instance, the particle size distribution can be measured by laser diffraction using a Malvern or Sympatec dry dispersion cell. […]

patients with COPD [3] = experiment: Phase II clinical study, single dose part (FEV1); format: in vivo, human
Protocol: as §1
Ensifentrine doses of 0.15, 0.5, 1.5, and 3 mg provided dose-dependent improvements from baseline in peak Forced Expiratory Volume in one second (FEV1) (over 4 hours) of up to 333 mL compared with placebo (p<0.01 for 1.5 mg and 3 mg doses).

COc1cc2c(cc1OC)-c1c/c(=N\c3c(C)cc(C)cc3C)n(CCNC(N)=O)c(=O)n1CC2 [Ensifentrine, 9,10-dimethoxy-2-(2,4,6-trimethylphenylimino)-3-(N-carbamoyl-2-aminoethyl)-3,4,6,7-tetrahydro-2H-pyrimido[6,1-a]isoquinolin-4-one]
Improvement in average FEV1 over 12 hours (patients with COPD [1]; 0.15 mg to 3 mg twice daily over 7 days, maximum across doses): up to 147 mL
Improvement from baseline in peak FEV1 (over 4 hours) on Day 7 compared with placebo (patients with COPD [1]; 0.15 mg twice daily over 7 days): 102 mL
Improvement from baseline in peak FEV1 (over 4 hours) on Day 7 compared with placebo (patients with COPD [1]; 0.5 mg twice daily over 7 days): 175 mL
Improvement from baseline in peak FEV1 (over 4 hours) on Day 7 compared with placebo (patients with COPD [1]; 1.5 mg twice daily over 7 days): 180 mL
Improvement from baseline in peak FEV1 (over 4 hours) on Day 7 compared with placebo (patients with COPD [1]; 3 mg twice daily over 7 days): 260 mL
Improvement in morning trough FEV1 on Day 7 compared with placebo (patients with COPD [1]; first of three listed values): 98 mL
Improvement in morning trough FEV1 on Day 7 compared with placebo (patients with COPD [1]; second of three listed values): 87 mL
Improvement in morning trough FEV1 on Day 7 compared with placebo (patients with COPD [1]; third of three listed values): 97 mL
Dv10 (μm) [2]: 0.5 μm
Dv50 (μm) [2]: 1.3 μm
Dv90 (μm) [2]: 3.6 μm
Improvement from baseline in peak FEV1 (over 4 hours) compared with placebo (patients with COPD [3]; single doses of 0.15, 0.5, 1.5 and 3 mg by DPI, maximum across doses): up to 333 mL
Bronchodilatory effect (patients with COPD [3]; single doses up to 3 mg by DPI, over 12 hours, COPD patients): rapid, dose-dependent, and statistically significant bronchodilatory effect
